Laboratory results taken from ChEMBL document CHEMBL1157938, “Cytotoxicity and inhibition of DNA topoisomerase I of polyhydroxylated triterpenoids and triterpenoid glycosides” (Bioorg Med Chem Lett, 2010).
Calls of active or inactive are those of the source. The rule behind the calls is not given here.

Tests used:
[1] = Cytotoxicity against human MRC5 cells after 48 hrs by WST8 assay; type: cell-based
[2] = tested on: PC-3; assay: Cytotoxicity against human PC3 cells after 48 hrs by WST8 assay; type: functional; conditions: PC-3, 48 h
[3] = tested on: PANC-1; assay: Cytotoxicity against human PANC1 cells after 48 hrs by WST8 assay; type: functional; conditions: PANC-1, 48 h
[4] = biological target: T1, DNA topoisomerase 1 (Homo sapiens) (UniProt P11387); assay: Inhibition of human DNA topoisomerase 1-mediated relaxation of supercoiled DNA at >125 uM
T1 sequence (whole entry): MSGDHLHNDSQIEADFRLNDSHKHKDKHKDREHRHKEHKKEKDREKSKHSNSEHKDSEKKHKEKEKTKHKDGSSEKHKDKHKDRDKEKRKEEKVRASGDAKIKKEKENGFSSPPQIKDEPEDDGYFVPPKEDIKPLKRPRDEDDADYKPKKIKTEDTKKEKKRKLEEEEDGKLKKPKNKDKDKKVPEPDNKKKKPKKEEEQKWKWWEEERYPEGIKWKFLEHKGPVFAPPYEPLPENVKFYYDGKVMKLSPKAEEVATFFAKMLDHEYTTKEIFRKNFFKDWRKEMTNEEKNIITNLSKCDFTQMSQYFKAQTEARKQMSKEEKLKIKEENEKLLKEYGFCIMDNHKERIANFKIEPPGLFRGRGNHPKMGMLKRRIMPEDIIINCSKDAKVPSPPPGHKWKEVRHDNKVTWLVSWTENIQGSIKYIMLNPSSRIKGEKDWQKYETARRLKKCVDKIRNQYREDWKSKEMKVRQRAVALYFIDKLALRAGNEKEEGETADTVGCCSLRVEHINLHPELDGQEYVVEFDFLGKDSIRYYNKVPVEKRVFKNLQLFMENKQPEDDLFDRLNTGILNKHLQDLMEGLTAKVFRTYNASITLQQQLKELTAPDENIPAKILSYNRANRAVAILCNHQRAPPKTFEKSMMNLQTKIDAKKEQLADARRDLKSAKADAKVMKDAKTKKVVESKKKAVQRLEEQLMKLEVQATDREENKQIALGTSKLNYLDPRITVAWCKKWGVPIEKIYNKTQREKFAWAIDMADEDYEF

[5] = biological target: DNA topoisomerase 2-alpha (Homo sapiens, UniProt P11388); assay: Inhibition of human DNA topoisomerase 2-mediated relaxation of supercoiled DNA by gel electrophoresis
[6] = tested on: A549; assay: Cytotoxicity against human A549 cells after 48 hrs by WST8 assay; type: functional; conditions: A549, 48 h
[7] = tested on: HL-60; assay: Cytotoxicity against human HL60 cells after 48 hrs by WST8 assay; type: functional; conditions: HL-60, 48 h
[8] = biological target: T2, DNA topoisomerase 1 (Homo sapiens, UniProt P11387); assay: Inhibition of human DNA topoisomerase 1-mediated relaxation of supercoiled DNA by gel electrophoresis
T2 sequence (P11387 whole entry): T1 sequence (whole entry)

[9] = tested on: HL-60; assay: Cytotoxicity against human HL60 cells at 25 uM after 48 hrs by WST8 assay; type: functional, cell-based
[10] = tested on: PANC-1; assay: Cytotoxicity against human PANC1 cells at 25 uM after 48 hrs by WST8 assay; type: functional, cell-based
[11] = tested on: A549; assay: Cytotoxicity against human A549 cells at 25 uM after 48 hrs by WST8 assay; type: functional, cell-based
[12] = tested on: PC-3; assay: Cytotoxicity against human PC3 cells at 25 uM after 48 hrs by WST8 assay; type: functional, cell-based
[13] = tested on: MRC5; assay: Cytotoxicity against human MRC5 cells at 25 uM after 48 hrs by WST8 assay; type: cell-based; conditions: mrc5, 48 h
[14] = biological target: T1, DNA topoisomerase 1 (Homo sapiens); assay: Inhibition of human DNA topoisomerase 1-mediated relaxation of supercoiled DNA at 450 uM
[15] = biological target: T1, DNA topoisomerase 1 (Homo sapiens); assay: Inhibition of human DNA topoisomerase 1-mediated relaxation of supercoiled DNA at 312 uM
[16] = biological target: T1, DNA topoisomerase 1 (Homo sapiens); assay: Inhibition of human DNA topoisomerase 1 assessed as intercalate into DNA at 312 uM
[17] = biological target: T1, DNA topoisomerase 1 (Homo sapiens); assay: Inhibition of human DNA topoisomerase 1 assessed as stabilize DNA-enzyme covalent complex
[18] = biological target: T2, DNA topoisomerase 1; assay: Inhibition of human DNA topoisomerase 1 at free enzyme state
[19] = biological target: T1, DNA topoisomerase 1 (Homo sapiens); assay: Inhibition of human DNA topoisomerase 1 assessed as prevention of DNA-enzyme complex formation
[20] = biological target: T1, DNA topoisomerase 1 (Homo sapiens); assay: Inhibition of human DNA topoisomerase 1-mediated relaxation of supercoiled DNA at 63 to 125 uM

Sequence of DNA topoisomerase 2-alpha (P11388 whole entry): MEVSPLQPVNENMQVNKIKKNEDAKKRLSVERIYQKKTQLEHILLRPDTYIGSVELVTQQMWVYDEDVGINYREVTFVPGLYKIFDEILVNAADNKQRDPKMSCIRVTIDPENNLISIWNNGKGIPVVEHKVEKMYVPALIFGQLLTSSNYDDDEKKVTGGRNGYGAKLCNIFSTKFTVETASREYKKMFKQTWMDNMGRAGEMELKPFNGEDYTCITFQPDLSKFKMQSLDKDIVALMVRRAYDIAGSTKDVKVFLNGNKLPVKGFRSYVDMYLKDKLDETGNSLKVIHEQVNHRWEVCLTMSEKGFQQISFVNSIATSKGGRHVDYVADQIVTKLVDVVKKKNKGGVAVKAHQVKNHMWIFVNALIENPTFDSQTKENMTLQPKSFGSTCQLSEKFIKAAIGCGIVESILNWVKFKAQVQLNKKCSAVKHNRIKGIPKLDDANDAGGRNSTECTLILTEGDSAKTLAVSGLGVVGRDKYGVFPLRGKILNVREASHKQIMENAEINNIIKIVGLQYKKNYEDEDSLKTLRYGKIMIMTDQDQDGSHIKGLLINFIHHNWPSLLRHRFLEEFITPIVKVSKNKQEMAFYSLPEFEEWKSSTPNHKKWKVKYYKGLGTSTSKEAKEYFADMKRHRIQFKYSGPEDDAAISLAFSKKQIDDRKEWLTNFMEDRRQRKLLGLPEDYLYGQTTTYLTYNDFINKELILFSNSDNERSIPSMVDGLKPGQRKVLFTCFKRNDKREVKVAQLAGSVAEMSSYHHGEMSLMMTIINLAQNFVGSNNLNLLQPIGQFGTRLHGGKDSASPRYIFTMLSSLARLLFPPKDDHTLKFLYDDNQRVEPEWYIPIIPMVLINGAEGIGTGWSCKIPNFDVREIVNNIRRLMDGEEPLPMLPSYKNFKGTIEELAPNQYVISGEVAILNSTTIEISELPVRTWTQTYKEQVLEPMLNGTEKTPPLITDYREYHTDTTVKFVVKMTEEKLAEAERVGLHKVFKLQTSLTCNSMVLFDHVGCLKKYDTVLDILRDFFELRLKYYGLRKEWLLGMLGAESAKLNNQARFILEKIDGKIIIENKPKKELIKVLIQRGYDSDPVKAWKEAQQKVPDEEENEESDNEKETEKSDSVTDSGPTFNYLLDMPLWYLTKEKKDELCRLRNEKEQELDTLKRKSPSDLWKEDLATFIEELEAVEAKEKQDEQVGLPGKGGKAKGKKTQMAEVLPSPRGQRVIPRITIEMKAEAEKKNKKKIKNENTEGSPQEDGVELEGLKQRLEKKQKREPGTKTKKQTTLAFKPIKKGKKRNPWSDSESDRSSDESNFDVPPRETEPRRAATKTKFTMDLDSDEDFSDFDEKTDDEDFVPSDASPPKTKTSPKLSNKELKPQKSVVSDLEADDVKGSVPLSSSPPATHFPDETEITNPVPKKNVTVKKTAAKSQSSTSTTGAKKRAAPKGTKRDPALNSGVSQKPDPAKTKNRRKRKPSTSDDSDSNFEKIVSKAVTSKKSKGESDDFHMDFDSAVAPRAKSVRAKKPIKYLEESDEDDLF

| SMILES | GI50 at 48 h [1] [µM] | GI50 [2] [µM] | GI50 [3] [µM] | inhibition [4] | IC50 [5] [µM] | GI50 [6] [µM] | GI50 [7] [µM] | IC50 [8] [µM] | growth inhibition (GI) [9] | growth inhibition (GI) [10] | growth inhibition (GI) [11] | growth inhibition (GI) [12] | growth inhibition (GI) [13] | inhibition [14] | inhibition [15] | Activity [16] | inhibition [17] | IC50 [18] [µM] | inhibition [19] | inhibition [20] |
| --- | --- | --- | --- | --- | --- | --- | --- | --- | --- | --- | --- | --- | --- | --- | --- | --- | --- | --- | --- | --- |
| C/C=C(/C)C(=O)O[C@H]1[C@H](OC(C)=O)[C@]2(CO)[C@H](O)C[C@]3(C)C(=CC[C@@H]4[C@@]5(C)CC[C@H](O[C@@H]6O[C@H](C(=O)O)[C@@H](O)[C@H](O[C@@H]7O[C@@H](CO)[C@H](O)[C@H]7O)[C@H]6O[C@@H]6O[C@H](CO)[C@H](O)[C@H](O)[C@H]6O)C(C)(C)[C@@H]5CC[C@]43C)[C@@H]2CC1(C)C [AESCULIOSIDE IIK] | 9.89 | 8.35 | 21.5 | Active | > 250 | 15.1 | 8.75 | > 250 |  |  |  |  |  |  |  |  |  |  |  |  |
| C/C=C(\C)C(=O)O[C@H]1[C@H](OC(C)=O)[C@]2(CO)[C@H](O)[C@H](O)[C@]3(C)C(=CC[C@@H]4[C@@]5(C)CC[C@H](O[C@@H]6O[C@H](C(=O)O)[C@@H](O)[C@H](O[C@@H]7O[C@@H](CO)[C@H](O)[C@H]7O)[C@H]6O[C@@H]6O[C@H](CO)[C@@H](O)[C@H](O)[C@H]6O)[C@](C)(CO)[C@@H]5CC[C@]43C)[C@@H]2CC1(C)C [AESCULIOSIDE IIE] |  |  |  | Active |  |  |  |  | inactive | inactive | inactive | inactive | Not Active |  |  |  |  |  |  |  |
| C/C=C(/C)C(=O)O[C@H]1[C@H](O)[C@]2(CO)[C@H](O)[C@H](O)[C@]3(C)C(=CC[C@@H]4[C@@]5(C)CC[C@H](O[C@@H]6O[C@H](C(=O)O)[C@@H](O)[C@H](O[C@@H]7O[C@@H](CO)[C@H](O)[C@H]7O)[C@H]6O[C@@H]6O[C@H](CO)[C@H](O)[C@H](O)[C@H]6O)C(C)(C)[C@@H]5CC[C@]43C)[C@@H]2CC1(C)C [AESCULIOSIDE IIA] |  |  |  |  | > 250 |  |  | 109 | inactive | inactive | inactive | inactive | Not Active | Active | inactive |  |  |  |  |  |
| C/C=C(/C)C(=O)O[C@H]1[C@H](OC(=O)C(C)C)[C@]2(CO)[C@H](O)[C@H](O)[C@]3(C)C(=CC[C@@H]4[C@@]5(C)CC[C@H](O[C@@H]6O[C@H](C(=O)O)[C@@H](O)[C@H](O[C@@H]7O[C@@H](CO)[C@H](O)[C@H]7O)[C@H]6O[C@@H]6O[C@H](CO)[C@@H](O)[C@H](O)[C@H]6O)[C@](C)(CO)[C@@H]5CC[C@]43C)[C@@H]2CC1(C)C [AESCULIOSIDE IIIB] |  | 9.93 |  |  | > 250 | 11.2 | 10.9 | 160 |  | inactive |  |  | Not Active | Active | inactive | Active | inactive | 23.8 | Active |  |
| C/C=C(\C)C(=O)O[C@H]1[C@H](OC(=O)C(C)CC)[C@]2(CO)[C@H](O)[C@H](O)[C@]3(C)C(=CC[C@@H]4[C@@]5(C)CC[C@H](O[C@@H]6O[C@H](C(=O)O)[C@@H](O)[C@H](O[C@@H]7O[C@@H](CO)[C@H](O)[C@H]7O)[C@H]6O[C@@H]6O[C@H](CO)[C@H](O)[C@H](O)[C@H]6O)C(C)(C)[C@@H]5CC[C@]43C)[C@@H]2CC1(C)C (stereo partly drawn) [AESCULIOSIDE IIIC] |  | 12.5 | 18.5 |  | > 250 | 17.6 | 13.6 | 132 |  |  |  |  | Not Active | Active |  | Active |  |  |  |  |
| C/C=C(/C)C(=O)O[C@H]1[C@H](OC(=O)/C(C)=C\C)[C@]2(CO)[C@H](O)C[C@]3(C)C(=CC[C@@H]4[C@@]5(C)CC[C@H](O)C(C)(C)[C@@H]5CC[C@]43C)[C@@H]2CC1(C)C | 7.18 | 6.84 | 11.2 |  | > 250 | 5.48 | 5.46 | > 250 |  |  |  |  |  | inactive |  |  |  |  |  |  |
| C/C=C(\C)C(=O)O[C@H]1[C@H](OC(=O)/C(C)=C/C)[C@]2(CO)[C@H](O)[C@H](O)[C@]3(C)C(=CC[C@@H]4[C@@]5(C)CC[C@H](O[C@@H]6O[C@H](C(=O)O)[C@@H](O)[C@H](O[C@@H]7O[C@@H](CO)[C@H](O)[C@H]7O)[C@H]6O[C@@H]6O[C@H](CO)[C@@H](O)[C@H](O)[C@H]6O)C(C)(C)[C@@H]5CC[C@]43C)[C@@H]2CC1(C)C [AESCULIOSIDE IIIF] | > 25 | 11.7 | 23.5 | Active | > 250 | > 25 | 14.2 | 53.7 |  |  |  |  |  |  |  |  |  |  |  | Active |
| C/C=C(/C)C(=O)O[C@H]1[C@H](O)[C@]2(CO)[C@H](O)C[C@]3(C)C(=CC[C@@H]4[C@@]5(C)CC[C@H](O[C@@H]6O[C@H](C(=O)O)[C@@H](O)[C@H](O[C@@H]7O[C@@H](CO)[C@H](O)[C@H]7O)[C@H]6O[C@@H]6O[C@H](CO)[C@H](O)[C@H](O)[C@H]6O)C(C)(C)[C@@H]5CC[C@]43C)[C@@H]2CC1(C)C [AESCULIOSIDE IIC] | 11.2 | 16.3 |  |  | > 250 | 8.67 | 5.75 | 111 |  | inactive |  |  |  | Active | inactive | Active | inactive | 23.8 | Active |  |
| C/C=C(/C)C(=O)O[C@H]1[C@H](O)[C@]2(COC(C)=O)[C@H](O)C[C@]3(C)C(=CC[C@@H]4[C@@]5(C)CC[C@H](O[C@@H]6O[C@H](C(=O)O)[C@@H](O)[C@H](O[C@@H]7O[C@@H](CO)[C@H](O)[C@H]7O)[C@H]6O[C@@H]6O[C@H](CO)[C@@H](O)[C@H](O)[C@H]6O)[C@](C)(CO)[C@@H]5CC[C@]43C)[C@@H]2CC1(C)C [AESCULIOSIDE IIIA] | 8.65 | 10.1 | 16.7 |  | > 250 | 9.48 | 7.2 | 119 |  |  |  |  |  | Active | inactive | Active | inactive | 23.8 | Active |  |
